Laboratory results reported in patent US20170224852A1, “BENZAZEPIN-1-OL-DERIVED PET LIGANDS WITH HIGH IN VIVO NMDA SPECIFICITY” (ETH ZURICH, priority 2016, published 2017).

Key:
[1] = molecular target: T1, NMDA-rich brain regions (Rattus norvegicus, UniProt P35439+Q00960); test: PET scans of rat brain with [11C]WMS1405; type: in vivo, Wistar rats; conditions: for accumulation in rat brain (PET): i.v. tail vein, 0 to 60 min p.i., baseline
T1 construct: from tissue; host or cells: brain of living Wistar rats (in vivo PET)
Method: (§1) Wistar rats (331-353 g) were under isoflurane anaesthesia (2.5-5% in oxygen/air 1/1) for all procedures and temperature and respiration were controlled with warm air and by adjusting the isoflurane dosage. A dynamic PET scan was started with a calibrated VISTA eXplore/Super Argus PET/CT scanner (Sedecal, Madrid, Sprain; axial field of view 4.8 cm) and at time zero, 32-52 MBq (0.44-0.78 nmol/kg, 250-300 μL) [^11C]NB1 were injected via a tail vein.

[2] = molecular target: T2, GluN1/GluN2B NTD (Rattus norvegicus, UniProt P35439+Q00960); test: In vitro autoradiography of [11C]NB1 on rat brain slices; type: binding; conditions: for blocking of [11C]NB1 binding to rat brain slices: 10 μM competitor with 5.4 nM [11C]NB1
T2 construct: horizontal rat brain slices (20 μm) of a male Wistar rat; from tissue; host or cells: rat brain slices (male Wistar rat)
Method: After incubation, the slices were washed with HEPES/BSA for 8 min and twice with HEPES buffer for 3 min followed by two 5-second rinses with water. The dried slices were exposed for 20 min to a phosphorimager plate, read in a phosphorimager BAS5000 (Fuji, Tokyo, Japan) and analyzed with the software AIDA v. 4.5 (Raytest Isotopenmessgerate GmbH, Germany).

[3] = molecular target: T3, signal receptor (Rattus norvegicus, UniProt Q9R0C9); test: In vitro displacement of [3H](+)pentazocine from rat brain membranes; type: binding; set-up: from tissue; host or cells: rat brain membranes
Method: (§2) FIG. 4A. […] One out of three independent experiments. Triplicate incubations with standard deviations. Solid line, fit IC50 function. Upper broken line, binding of 2.9 nM [^3H](+)pentazocine alone. […] Baseline and blockade (circles) as in FIGS. 2B and 2C. Squares, co-injection of 2.5 mg/kg (+)-pentazocine.
In vitro binding study with [^3H](+)pentazocine, a ligand for signal receptor.

[4] = molecular target: signal receptor; conditions: read-out: Kd at signal receptor; Lever et al., Synapse 2006; cited from earlier work
[5] = molecular target: T1, NMDA-rich brain regions; test: PET scans of rat brain with [18F]WMS1410; type: in vivo, Wister rat
Method: as §1
Similar PET experimental procedure as mentioned above for [^11C]WMS1405 was applied for imaging [^18F]WMS1410 with Wister rat.

[6] = tested on: GluN2B(C,D)-containing NMDA receptors; test: PET receptor occupancy after eliprodil administration at various doses; type: in vivo, rat
[7] = Garrigou-Cadenne et al. 1995; cited from earlier work
[8] = molecular target: T3, signal receptor; conditions: co-injection; (+)-pentazocine 2.5 mg/kg, haloperidol 0.13 mg/kg
Method: as §2

T3 sequence (Q9R0C9 whole entry): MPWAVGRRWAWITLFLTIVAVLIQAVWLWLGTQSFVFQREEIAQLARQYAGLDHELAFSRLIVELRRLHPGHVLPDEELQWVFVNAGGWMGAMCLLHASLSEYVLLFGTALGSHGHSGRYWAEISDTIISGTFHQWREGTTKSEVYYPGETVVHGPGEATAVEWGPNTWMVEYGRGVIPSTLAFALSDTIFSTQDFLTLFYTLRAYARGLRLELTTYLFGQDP
T1 sequence (Q00960 27-1482, other chains not shown): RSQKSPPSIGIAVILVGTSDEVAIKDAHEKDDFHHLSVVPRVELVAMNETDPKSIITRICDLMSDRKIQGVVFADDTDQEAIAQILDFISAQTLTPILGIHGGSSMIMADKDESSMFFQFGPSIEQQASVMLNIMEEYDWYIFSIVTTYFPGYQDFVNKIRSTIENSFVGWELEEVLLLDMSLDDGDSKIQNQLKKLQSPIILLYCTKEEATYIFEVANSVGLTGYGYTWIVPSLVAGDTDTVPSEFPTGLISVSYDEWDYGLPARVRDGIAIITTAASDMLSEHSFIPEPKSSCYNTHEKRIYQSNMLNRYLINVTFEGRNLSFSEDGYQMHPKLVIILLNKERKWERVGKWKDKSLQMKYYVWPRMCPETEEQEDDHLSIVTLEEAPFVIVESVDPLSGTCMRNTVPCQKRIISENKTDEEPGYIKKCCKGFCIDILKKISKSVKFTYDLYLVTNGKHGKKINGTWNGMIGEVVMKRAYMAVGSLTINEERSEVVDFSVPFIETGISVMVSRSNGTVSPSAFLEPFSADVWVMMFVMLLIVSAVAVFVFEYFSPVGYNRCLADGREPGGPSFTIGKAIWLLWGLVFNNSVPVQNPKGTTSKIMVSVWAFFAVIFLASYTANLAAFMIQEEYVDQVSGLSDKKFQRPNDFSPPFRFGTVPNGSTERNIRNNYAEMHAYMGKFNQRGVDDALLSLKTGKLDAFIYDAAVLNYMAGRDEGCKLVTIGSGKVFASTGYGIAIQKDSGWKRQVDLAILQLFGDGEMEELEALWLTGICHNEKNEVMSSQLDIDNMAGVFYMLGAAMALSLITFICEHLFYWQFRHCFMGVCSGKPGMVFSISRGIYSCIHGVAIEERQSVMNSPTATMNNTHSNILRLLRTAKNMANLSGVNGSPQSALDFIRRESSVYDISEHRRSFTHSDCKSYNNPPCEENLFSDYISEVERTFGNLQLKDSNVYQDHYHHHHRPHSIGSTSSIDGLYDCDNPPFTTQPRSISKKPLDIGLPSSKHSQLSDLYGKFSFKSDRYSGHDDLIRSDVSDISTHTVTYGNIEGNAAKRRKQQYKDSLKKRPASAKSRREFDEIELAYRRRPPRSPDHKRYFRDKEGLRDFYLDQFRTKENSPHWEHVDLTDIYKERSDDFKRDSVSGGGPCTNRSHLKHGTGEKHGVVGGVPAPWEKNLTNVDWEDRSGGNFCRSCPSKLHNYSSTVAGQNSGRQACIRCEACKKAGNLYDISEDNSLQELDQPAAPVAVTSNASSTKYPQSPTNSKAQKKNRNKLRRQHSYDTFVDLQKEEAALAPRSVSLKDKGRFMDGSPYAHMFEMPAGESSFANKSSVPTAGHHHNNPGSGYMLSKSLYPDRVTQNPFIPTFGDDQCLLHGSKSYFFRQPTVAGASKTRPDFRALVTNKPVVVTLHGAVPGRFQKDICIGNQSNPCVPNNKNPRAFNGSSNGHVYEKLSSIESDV
T2 sequence (Q00960 27-1482, other chains not shown): as above

Question: Which “accumulation in rat brain (PET)” value [1] does the source give for [11CH3]Oc1ccc2c(c1)CCN(CCCCc1ccccc1)CC2O (single isomer, unassigned; stereoisomer b) [Stereoisomer B(+)] here?
Answer: The value was “accumulates more than the racemate”.

Question: For C[C@H](NC(c1cccc2[nH]c(=O)c(=O)[nH]c12)P(=O)(O)O)c1ccc(Br)cc1 (stereo partly shown) [AAM077], which “blocking of [11C]NB1 binding to rat brain slices” value [2] is on record?
Answer: The value was “not”.

Question: Which results are given for COc1ccc2c(c1)CCN(CCCCc1ccccc1)CC2O (stereo not shown) [WMS1405]?
Answer: Ki ([3]; 2.9 nM [3H](+)pentazocine, rat brain membranes): 1 to 10 µM; competition for the binding of (+)pentazocine to signal receptor ([3]; in vitro): does not compete

Question: For CC(C)=CCN1CC[C@]2(C)c3cc(O)ccc3C[C@H]1[C@H]2C [[^3H](+)pentazocine], which Kd [4] is on record?
Answer: Its Kd is 1.6 nM.

Question: Which “binding to rat brain slices by in vitro autoradiography” value ([2]; 5.4 nM tracer, 30 min, room temperature, baseline) does the source give for [11CH3]Oc1ccc2c(c1)CCN(CCCCc1ccccc1)CC2O (stereo not shown) [[^11C]WMS1405] here?
Answer: The value was “high binding in most brain regions”.

Question: And the “accumulation in rat brain (PET)” value [1]?
Answer: Its value is “accumulates in NMDA-rich brain regions”.

Question: With OC1CN(CCCCc2ccccc2)CCc2cc(OCC[18F])ccc21 (stereo not shown) [[^18F]WMS1410] as the compound, how does the “accumulation in rat brain (PET)” value ([5]; baseline) read?
Answer: Its value is “accumulates in NMDA-rich brain regions”.

Question: For OC(CN1CCC(Cc2ccc(F)cc2)CC1)c1ccc(Cl)cc1 (stereo not shown) [eliprodil], which “blockade of [18F]WMS1410 in rat brain (PET)” value ([5]; eliprodil 1 mg/kg co-injection) is on record?
Answer: Its value is “blocked”.

Question: And the receptor occupancy ([6]; at 70 μg/kg)?
Answer: Its receptor occupancy is 99%.

Question: What about the “dose for 50% receptor occupancy” value ([6]; brain stem (GluN2B-poor but GluN2D-rich)) of the same compound?
Answer: The value was 7.7 nmol/kg.

Question: And the “dose for 50% receptor occupancy” value ([6]; midbrain (GluN2B-poor but GluN2D-rich))?
Answer: The value was 6.2 nmol/kg.

Question: What about the brain/plasma ratio [7] of the same compound?
Answer: Its brain/plasma ratio is “about 20”.

Question: What about the “blocking of [11C]NB1 binding to rat brain slices” value [2] of the same compound?
Answer: Its value is “blocked”.

Question: What about the “blockade and displacement of [11C]WMS1405 in rat brain (PET)” value ([1]; eliprodil 1 mg/kg, displacement 20 min after tracer injection) of the same compound?
Answer: The value was “blocked and displaced”.

Question: For CC(C)=CCN1CCC2(C)c3cc(O)ccc3CC1C2C (stereo not shown) [pentazocine], which “reduction of [11C]WMS1405 binding in vivo” value [8] is on record?
Answer: The value was “reduced [^11C]WMS1405 binding to similar levels as under blocking conditions with eliprodil”.
